Experimental data from patent US8895592B2, “Compounds as cannabinoid receptor ligands” (priority 2008, dated 2014).

Tests used:
human CB2 receptors = human CB2 receptors (Homo sapiens (Human), UniProt P34972); experiment: human CB2 radioligand binding assay ([3H]CP 55,940 competition); conditions: HEK293 membranes, 0.5 nM [3H]CP 55,940
Protocol: HEK293 cells stably expressing human CB2 receptors were grown until a confluent monolayer was formed. Briefly, the cells were harvested and homogenized in TE buffer (50 mM Tris-HCl, 1 mM MgCl2, and 1 mM EDTA) using a polytron for 2×10 second bursts in the presence of protease inhibitors, followed by centrifugation at 45,000×g for 20 minutes. The final membrane pellet was re-homogenized in storage buffer (50 mM Tris-HCl, 1 mM MgCl2, and 1 mM EDTA and 10% sucrose) and frozen at −78° C. until used. Saturation binding reactions were initiated by the addition of membrane preparation (protein concentration of 5 μg/well for human CB2) into wells of a deep well plate containing [^3H]CP 55,940 (120 Ci/mmol, a nonselective CB agonist commercially available from Tocris) in assay buffer (50 mM Tris, 2.5 mM EDTA, 5 mM MgCl2, and 0.5 mg/mL fatty acid free BSA, pH 7.4). After 90 min incubation at 30° C., binding reaction was terminated by the addition of 300 μL/well of cold assay buffer followed by rapid vacuum filtration through a UniFilter-96 GF/C filter plates (pre-soaked in 1 mg/mL BSA for 2 hours). The bound activity was counted in a TopCount using Microscint-20. Saturation experiments were conducted with twelve concentrations of [^3H]CP 55,940 ranging from 0.01 to 8 nM. Competition experiments were conducted with 0.5 nM [^3H]CP 55,940 and five concentrations (0.01 nM to 10 μM) of displacing ligands. The addition of 10 μM unlabeled CP 55,940 (Tocris, Ellisville, Mo.) was used to assess nonspecific binding.

rat CB2 receptors = rat CB2 receptors (Rattus norvegicus (Rat), UniProt Q9QZN9); experiment: rat CB2 radioligand binding assay ([3H]CP 55,940 competition); conditions: HEK293 membranes, 0.5 nM [3H]CP 55,940
Chain of rat CB2 receptors (Q9QZN9 whole entry): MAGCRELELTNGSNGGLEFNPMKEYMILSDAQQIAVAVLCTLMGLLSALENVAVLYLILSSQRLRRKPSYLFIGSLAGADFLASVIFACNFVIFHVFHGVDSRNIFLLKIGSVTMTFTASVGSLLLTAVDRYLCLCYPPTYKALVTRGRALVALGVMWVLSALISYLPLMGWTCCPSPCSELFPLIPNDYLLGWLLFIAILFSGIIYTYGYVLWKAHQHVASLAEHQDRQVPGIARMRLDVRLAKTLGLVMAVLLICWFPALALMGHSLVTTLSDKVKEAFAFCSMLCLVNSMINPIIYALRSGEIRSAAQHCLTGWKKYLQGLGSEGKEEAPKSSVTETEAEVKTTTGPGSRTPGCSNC
Protocol: HEK293 cells stably expressing rat CB2 receptors were grown until a confluent monolayer was formed. Briefly, the cells were harvested and homogenized in TE buffer (50 mM Tris-HCl, 1 mM MgCl2, and 1 mM EDTA) using a polytron for 2×10 second bursts in the presence of protease inhibitors, followed by centrifugation at 45,000×g for 20 minutes. The final membrane pellet was re-homogenized in storage buffer (50 mM Tris-HCl, 1 mM MgCl2, and 1 mM EDTA and 10% sucrose) and frozen at −78° C. until used. Saturation binding reactions were initiated by the addition of membrane preparation (protein concentration of 20 μg/well for rat CB2) into wells of a deep well plate containing [^3H]CP 55,940 (120 Ci/mmol, a nonselective CB agonist commercially available from Tocris) in assay buffer (50 mM Tris, 2.5 mM EDTA, 5 mM MgCl2, and 0.5 mg/mL fatty acid free BSA, pH 7.4). After 45 min incubation at 30° C., binding reaction was terminated by the addition of 300 μl/well of cold assay buffer followed by rapid vacuum filtration through a UniFilter-96 GF/C filter plates (pre-soaked in 1 mg/mL BSA for 2 hours). The bound activity was counted in a TopCount using Microscint-20. Saturation experiments were conducted with twelve concentrations of [^3H]CP 55,940 ranging from 0.01 to 8 nM. Competition experiments were conducted with 0.5 nM [^3H]CP 55,940 and five concentrations of displacing ligands selected from the range of 0.01 nM to 10 μM. The addition of 10 μM unlabeled CP 55,940 (Tocris, Ellisville, Mo.) was used to assess nonspecific binding.

Chain of human CB2 receptors (P34972 whole entry): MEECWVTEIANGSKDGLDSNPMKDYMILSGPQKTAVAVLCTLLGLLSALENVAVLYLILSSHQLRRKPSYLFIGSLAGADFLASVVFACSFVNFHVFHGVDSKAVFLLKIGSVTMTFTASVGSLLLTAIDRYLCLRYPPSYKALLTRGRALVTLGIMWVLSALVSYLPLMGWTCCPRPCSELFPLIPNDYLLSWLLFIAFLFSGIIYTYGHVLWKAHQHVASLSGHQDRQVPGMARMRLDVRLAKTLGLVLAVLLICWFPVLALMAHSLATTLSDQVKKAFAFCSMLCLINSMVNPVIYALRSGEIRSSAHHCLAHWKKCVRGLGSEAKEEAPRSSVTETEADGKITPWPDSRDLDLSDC

Row | SMILES | Ki (human CB2 receptors) | Ki (rat CB2 receptors)
1 | CC(C)Cn1cc(C(C)(C)C)s/c1=N\C(=O)c1cc(C(F)(F)F)ccc1OCCn1ccnc1 [Example 6, N-[(2Z)-5-tert-butyl-3-isobutyl-1,3-thiazol-2(3H)-ylidene]-2-[2-(1H-imidazol-1-yl)ethoxy]-5-(trifluoromethyl)benzamide] | 96 nM | 39 nM
2 | CC(C)Cn1cc(C(C)(C)C)s/c1=N\C(=O)c1ccccc1OC[C@@H]1CCCN1C [Example 10, N-[(2Z)-5-tert-butyl-3-isobutyl-1,3-thiazol-2(3H)-ylidene]-2-{[(2S)-1-methylpyrrolidin-2-yl]methoxy}benzamide] | 296 nM | 243 nM
3 | CC(C)Cn1cc(C(C)(C)C)s/c1=N\C(=O)c1cc(C(F)(F)F)ccc1O[C@H]1CCN(C)C1 [Example 13, N-[(2Z)-5-tert-butyl-3-isobutyl-1,3-thiazol-2(3H)-ylidene]-2-{[(3S)-1-methylpyrrolidin-3-yl]oxy}-5-(trifluoromethyl)benzamide] | 111 nM | 81 nM
4 | CC(C)Cn1cc(C(C)(C)C)s/c1=N\C(=O)c1cc(Cl)ccc1OC1CC1 [Example 15, N-[(2Z)-5-tert-butyl-3-isobutyl-1,3-thiazol-2(3H)-ylidene]-5-chloro-2-(cyclopropyloxy)benzamide] | 9.9 nM | 1.1 nM
5 | CC(C)Cn1cc(C(C)(C)C)s/c1=N\C(=O)c1cc(C#N)ccc1OC1CCC1 [Example 16, N-[(2Z)-5-tert-butyl-3-isobutyl-1,3-thiazol-2(3H)-ylidene]-5-cyano-2-(cyclobutyloxy)benzamide] | 96 nM | 5.2 nM
6 | CC(C)(C)c1cn(CCC(F)(F)F)/c(=N/C(=O)c2cc(C#N)ccc2OC2CCC2)s1 [Example 17, N-[(2Z)-5-tert-butyl-3-(3,3,3-trifluoropropyl)-1,3-thiazol-2(3H)-ylidene]-5-cyano-2-(cyclobutyloxy)benzamide] | 53 nM | 1.1 nM
7 | CCCCn1/c(=N/C(=O)c2cc(C(F)(F)F)ccc2OCCC(C)(C)O)sc2ccncc21 [Example 20, N-[(2Z)-3-butyl[1,3]thiazolo[4,5-c]pyridin-2(3H)-ylidene]-2-(3-hydroxy-3-methylbutoxy)-5-(trifluoromethyl)benzamide] | 35 nM | 48 nM
8 | CCCCn1/c(=N/C(=O)c2cc(C(F)(F)F)ccc2ONC(C)(C)C)sc2ccncc21 [Example 22, 2-[(tert-butylamino)oxy]-N-[(2Z)-3-butyl[1,3]thiazolo[4,5-c]pyridin-2(3H)-ylidene]-5-(trifluoromethyl)benzamide] | 62 nM | 73 nM
9 | CCCCn1cc(C(C)(C)C)s/c1=N\C(=O)c1cc(C(F)(F)F)ccc1ONC(C)(C)C [Example 23, 2-[(tert-butylamino)oxy]-N-[(2Z)-3-butyl-5-tert-butyl-1,3-thiazol-2(3H)-ylidene]-5-(trifluoromethyl)benzamide] | 6.7 nM | 0.95 nM
10 | Cc1s/c(=N\C(=O)c2cc(C(F)(F)F)ccc2OC[C@@H]2CCCN2C)n(CC2CC2)c1C [Example 24, N-[(2Z)-3-(cyclopropylmethyl)-4,5-dimethyl-1,3-thiazol-2(3H)-ylidene]-2-{[(2S)-1-methylpyrrolidin-2-yl]methoxy}-5-(trifluoromethyl)benzamide] | 30 nM | 35 nM
11 | CC(C)(O)COc1ccc(C(F)(F)F)cc1C(=O)/N=c1\sc2ccncc2n1CC1CCC1 [Example 26, N-[(2Z)-3-(cyclobutylmethyl)[1,3]thiazolo[4,5-c]pyridin-2(3H)-ylidene]-2-(2-hydroxy-2-methylpropoxy)-5-(trifluoromethyl)benzamide] | 2.5 nM | 7.4 nM
12 | CC(C)(O)COc1ccc(C(F)(F)F)cc1C(=O)/N=c1\sc2ccncc2n1CCCC(F)(F)F [Example 27, 2-(2-hydroxy-2-methylpropoxy)-N-[(2Z)-3-(4,4,4-trifluorobutyl)[1,3]thiazolo[4,5-c]pyridin-2(3H)-ylidene]-5-(trifluoromethyl)benzamide] | 8.4 nM | 10 nM
13 | CCCCn1/c(=N/C(=O)c2cc(C(F)(F)F)ccc2OC[C@@H](C)O)sc2ccncc21 [Example 28, N-[(2Z)-3-butyl[1,3]thiazolo[4,5-c]pyridin-2(3H)-ylidene]-2-{[(2R)-2-hydroxypropyl]oxy}-5-(trifluoromethyl)benzamide] | 75 nM | 63 nM
14 | C#CCCn1cc(C(C)(C)C)s/c1=N\C(=O)c1cc(C(F)(F)F)ccc1ONC(C)(C)C [Example 30, 2-[(tert-butylamino)oxy]-N-[(2Z)-5-tert-butyl-3-but-3-ynyl-1,3-thiazol-2(3H)-ylidene]-5-(trifluoromethyl)benzamide] | 15 nM | 0.75 nM
15 | C=C=CCn1cc(C(C)(C)C)s/c1=N\C(=O)c1cc(C(F)(F)F)ccc1ONC(C)(C)C [Example 31, N-[(2Z)-3-buta-2,3-dienyl-5-tert-butyl-1,3-thiazol-2(3H)-ylidene]-2-[(tert-butylamino)oxy]-5-(trifluoromethyl)benzamide] | 17 nM | 1.7 nM
16 | CCCCn1cc(C(C)(C)C)s/c1=N\C(=O)c1cc(C(F)(F)F)ccc1OCC(C)(C)O [Example 32, N-[(2Z)-3-butyl-5-tert-butyl-1,3-thiazol-2(3H)-ylidene]-2-(2-hydroxy-2-methylpropoxy)-5-(trifluoromethyl)benzamide] | 0.82 nM | 1.2 nM
17 | CCCCn1/c(=N/C(=O)c2cc(C(F)(F)F)ccc2OC[C@@H]2CCCN2C)sc2ccncc21 [Example 33, N-[(2Z)-3-butyl[1,3]thiazolo[4,5-c]pyridin-2(3H)-ylidene]-2-{[(2S)-1-methylpyrrolidin-2-yl]methoxy}-5-(trifluoromethyl)benzamide] | 34 nM | 35 nM
18 | CCCCn1c(C(=O)OC)c(C(C)C)s/c1=N\C(=O)c1cc(C(F)(F)F)ccc1ONC(C)(C)C [Example 34] | 129 nM | 48 nM
19 | CCCCn1/c(=N/C(=O)c2cc(C(F)(F)F)ccc2OCC(C)(C)O)sc2ncccc21 [Example 35, N-[(2Z)-1-butyl[1,3]thiazolo[5,4-b]pyridin-2(1H)-ylidene]-2-(2-hydroxy-2-methylpropoxy)-5-(trifluoromethyl)benzamide] | 15 nM | 28 nM
20 | CCCCn1/c(=N/C(=O)c2cc(C(F)(F)F)ccc2OC[C@H](C)O)sc2ncccc21 [Example 36, N-[(2Z)-1-butyl[1,3]thiazolo[5,4-b]pyridin-2(1H)-ylidene]-2-{[(2S)-2-hydroxypropyl]oxy}-5-(trifluoromethyl)benzamide] | 1.4 nM | 2.1 nM
21 | CCCCn1cc(C(C)(C)C)s/c1=N\C(=O)c1cc(C(F)(F)F)ccc1NNC(=O)c1cccnc1 [Example 37, N-[(2Z)-3-butyl-5-tert-butyl-1,3-thiazol-2(3H)-ylidene]-2-[2-(pyridin-3-ylcarbonyl)hydrazino]-5-(trifluoromethyl)benzamide] | 1.6 nM | 0.77 nM
22 | CCCCn1cc(C(C)(C)C)s/c1=N\C(=O)c1cc(C(F)(F)F)ccc1NNC(=O)c1ccncc1 [Example 38, N-[(2Z)-3-butyl-5-tert-butyl-1,3-thiazol-2(3H)-ylidene]-2-(2-isonicotinoylhydrazino)-5-(trifluoromethyl)benzamide] | 1.1 nM | 2.3 nM
